Data from patent US20240391940A1, “FUSED RING-CONTAINING COMPOUND, APPLICATION THEREOF, AND COMPOSITION CONTAINING SAME” (GenEros Biopharma Ltd., priority 2020, published 2024).
Several values for one entry are separate records, joined by “and”; a condition that tells them apart may be missing. Equal entries are not always repeated.

What was measured:
[1] = system: Apoe KO mouse atherosclerosis model; test: Atherosclerosis model (Apoe KO mice, high-fat diet): blood lipid tests TCHO, TG, LDL-C, HDL-C; format: in vivo, C57BL/6 Apoe KO mice; design: blood lipids (CHO) in Apo E−/− mice / blood lipids (TG) in Apo E−/− mice / blood lipids (HDL-C) in Apo E−/− mice / blood lipids (LDL-C) in Apo E−/− mice: unit not given here; settings: HFD + 284-60 mpk
Method: (§1) Method: Apoe KO mice were tested for basal blood lipid levels and divided into a normal control group and a high-fat group. After 8 weeks of housing, the mice from the high-fat group were divided into 4 groups of about 8: a normal diet group (Chow), a high-fat diet model group (HFD), an Atorvastatin positive group (HFD+atorvastatin 5 mpk, QD), and a GEN1-284s group (284-60 mpk, QD). Oral administration was performed for 8 consecutive weeks, and the effect of the compound on the following indicators in Apoe KO mice was observed: 4 blood lipid tests (TC, TG, HDL-C and LDL-C), aortic plaque En-face staining, and pathological oil red staining of the cardiac outflow tract.
(§2) Mice from the groups except for the normal diet control group (Chow) were fed with high-fat feed every day for […]. From week 9, each group was orally administered solvent or a corresponding test compound, and body weight data were recorded every day for 8 consecutive weeks. After the first 8 weeks' high-fat diet, blood samples were taken and centrifuged to separate serum, and the serum was tested for blood lipid levels (TCHO, TG, LDL-C and HDL-C). The mice were randomly grouped according to the TCHO results and body weight. During the subsequent 8 weeks of administration, blood lipid tests (TCHO, TG, LDL-C and HDL-C) were run once every 4 weeks.
Mice were fasted overnight, and blood (150 μL) was collected via mandibular blood sampling or eye ball removal (for endpoint only) and left at room temperature for 2 h. The blood was centrifuged at 4° C. at 7000 rpm for 10 min, and serum was pipetted, quick-frozen in dry ice and then stored at −80° C. before analysis. The serum was tested for the biochemical indicators TCHO, TG, LDL-C and HDL-C using kits and a microplate reader.

[2] = system: Apoe KO mouse atherosclerosis model; test: Atherosclerosis model: aortic plaque En-face staining and plaque area; format: in vivo, C57BL/6 Apoe KO mice; settings: HFD + 284-60 mpk, PO QD 8 W, individual mice; in % (unit assumed)
Method: as §1, §2
At the end of the experiment, the mice were euthanized by CO2 inhalation, and their hearts and aortas (from the aortic arch to the iliac artery) were isolated. The isolated artery was dissected longitudinally from the aortic arch to the iliac artery, fixed in 4% paraformaldehyde for 30 min, synchronized with 60% isopropanol for 10 min, then stained in 60% oil red for 30 min, and then washed with 60% isopropanol 3 times for 5 min each time. Finally, the stained aorta was washed with deionized water and photographed. The proportion of red plaque areas was measured using Image Pro Plus 6.0 (Media Cybernetics, MD, US).

[3] = system: Apoe KO mouse atherosclerosis model; test: Atherosclerosis model: plaques in the cardiac (left ventricular) outflow tract; format: in vivo, C57BL/6 Apoe KO mice; settings: HFD + 284-60 mpk, PO QD 8 W, individual mice; in %
Method: as §1, §2
Mouse heart samples were fixed overnight in 4% paraformaldehyde solution and dehydrated in sucrose solution. Then, the samples were embedded with OCT (Sakura, Japan) under a stereo microscope and made into 10 μm frozen sections. The sections were stained with oil red ORO and then subjected to routine pathological examinations. Images of the outflow tract were acquired under an optical microscope at 4× magnification, and high-quality morphological observations were carried out using an eyepiece with 20× magnification. The percentage of intimal lesions in the cardiac outflow tract was calculated. The detection criteria followed the criteria for histological classification of human atherosclerotic disease, which are described in detail below:
The area of plaques in the left ventricular outflow tract was measured using a microscope, and the proportion of plaques in the left ventricular outflow tract was calculated; this value reflects the degree of stenosis in the cardiac outflow tract vessel.

[4] = system: IMQ-induced psoriasis mouse model; test: IMQ-induced psoriasis mouse model (PASI scoring); format: in vivo, Balb/c mice; design: key to skin thickening in psoriasis mice (score) / skin redness in psoriasis mice (score) / skin scaling in psoriasis mice (score): 0 = none to 4 = very severe, per sign; settings: 284-30 (30 mpk PO QD)
Method: Method: This experiment used a total of 19 mice. A natural skin observation control (n=1). 2 cm^2 of hair was shaved off the backs of […] on day 0, the stubble was removed with a mild depilatory cream, and the original skin was photographed. 62.5 mg of IMQ was applied to each of the mice. There was a mock group (n=6), a DEX (3 mg/kg, PO., qD) group (n=6), and a GEN1-284s (30 mg/kg, PO, qD) group (n=6). On the day of modeling, administration was performed in a volume of 100 μL/20 g body weight 4 h after IMQ application. The PASI scoring method was used to score the erythema, swelling and scaling on the skin of the mice. The experiment took a total of 6 days. The first day was set to day 0. IMQ application and administration were not performed on day 5. The mice were sacrificed with carbon dioxide at the end of the experiment.
The test animals were anesthetized with isoflurane. 2 cm^2 of hair was shaved off the backs of the mice, and the stubble was removed with a depilatory cream. IMQ application was performed for a total of 5 days, from day 0 to day 4. Scoring and IMQ application were performed every morning. Administration was performed in the afternoon
Desquamation (D): means epidermal cells flake off. The severity scores of skin lesions were as follows: • 0=none; this sign cannot be confirmed by careful observation • 1=mild; this sign can be confirmed but careful observation is required • 2=moderate; this sign is more visible and can be confirmed immediately • 3=severe; this sign is marked. • 4=very severe; this sign is very marked.
Induration I: 0—skin lesions are at the same level as normal skin; • 1—skin lesions are at slightly higher levels than normal skin surface; • 2—lesions moderately stick out and have round or slope-shaped borders; • 3—skin lesions are thick and markedly stick out; • 4—skin lesions are very thick and very markedly stick out.
Erythema E: • 0—no visible erythema; • 1—light red; • 2—red; • 3—dark red; • 4—the red is very dark

[5] = DAY 1, individual mice, 30 mg/kg
[6] = DAY 2, individual mice, 30 mg/kg
[7] = DAY 3, individual mice, 30 mg/kg
[8] = DAY 4, individual mice, 30 mg/kg
[9] = DAY 5, individual mice, 30 mg/kg

For `O=C(Cc1ccc2ncccc2c1)N1CCC(n2c(=O)n(COP(=O)(O)O)c3cccc(C(F)(F)F)c32)CC1` [Compound 284], the “blood lipids (CHO) in Apo E−/− mice” value ([1]; Time 1, individual mice) was 0.7986 and 0.8043 and 0.8562 and 0.7873 and 0.8278 and 1.372 and 1.184, the “blood lipids (HDL-C) in Apo E−/− mice” value ([1]; Time 1, individual mice) was 1.371 and 0.5315 and 1.057 and 0.9966 and 1.123 and 1.022 and 1.153 and the “blood lipids (LDL-C) in Apo E−/− mice” value ([1]; Time 1, individual mice) was 0.6872 and 1.011 and 0.7654 and 0.5196 and 0.7151 and 1.05 and 1.587. For the same molecule, the “blood lipids (TG) in Apo E−/− mice” value ([1]; Time 1, individual mice) was 0.4337 and 0.6308 and 0.6265 and 0.755 and 0.7465 and 0.995 and 1.031, the “blood lipids (CHO) in Apo E−/− mice” value ([1]; Time 2, individual mice) was 1.233 and 0.8693 and 1.165 and 0.9214 and 0.6106 and 1.043 and 0.9931 and 1.18 and the “blood lipids (HDL-C) in Apo E−/− mice” value ([1]; Time 2, individual mice) was 2.122 and 0.9935 and 0.9789 and 1.033 and 0.8106 and 1.037 and 1.827 and 1.565. For the same molecule, the “blood lipids (LDL-C) in Apo E−/− mice” value ([1]; Time 2, individual mice) was 1.374 and 0.6809 and 2.129 and 1.097 and 0.9183 and 1.393 and 1.144 and 0.9377, the “blood lipids (TG) in Apo E−/− mice” value ([1]; Time 2, individual mice) was 1.051 (2×) and 0.7809 and 1.131 and 1.303 and 1.009 and 1.451 and 1.117 and the “blood lipids (CHO) in Apo E−/− mice” value ([1]; Time 3, individual mice) was 1.388 and 0.8444 and 1.354 and 0.78 and 1.427 and 1.407 and 1.241 and 1.477. For the same molecule, the “blood lipids (HDL-C) in Apo E−/− mice” value ([1]; Time 3, individual mice) was 2.24 and 0.5362 and 0.9059 and 0.8576 and 1.163 and 1.018 (2×) and 1.067, the “blood lipids (LDL-C) in Apo E−/− mice” value ([1]; Time 3, individual mice) was 1.218 and 0.622 and 1.641 and 0.9017 and 1.494 and 1.215 and 2.628 and 1.406 and the “blood lipids (TG) in Apo E−/− mice” value ([1]; Time 3, individual mice) was 0.8373 and 0.8015 and 1.448 and 0.7657 and 0.9226 and 1.222 and 1.943 and 1.2. For the same molecule, the “blood lipids (CHO) in Apo E−/− mice” value ([1]; Time 4, individual mice) was 1.59 and 1.257 and 1.396 and 0.4939 and 0.5475 and 1.048 and 1.029 and 1.174, the “blood lipids (HDL-C) in Apo E−/− mice” value ([1]; Time 4, individual mice) was 1.04 and 0.5331 and 1.239 and 0.8199 and 0.5772 and 0.511 and 0.5552 and 1.57 and the “blood lipids (LDL-C) in Apo E−/− mice” value ([1]; Time 4, individual mice) was 1.177 and 0.9355 and 0.8511 and 0.1725 and 0.4792 and 1.162 and 1.093 and 0.5061. For the same molecule, the “blood lipids (TG) in Apo E−/− mice” value ([1]; Time 4, individual mice) was 1.059 and 0.6674 and 1.093 and 0.7289 and 1.028 and 0.7597 and 1.227 and 1.278, the “atherosclerotic plaques in mice (proportion of arterial plaque area)” value [2] was 14.51 and 15.36 and 6.043 and 8.803 and 8.747 and 3.497 and 13.32 and 11.93 and the “plaques in the cardiac outflow tracts of mice (proportion of plaques in the left ventricular outflow tract)” value [3] was 3.172 and 8.444 and 8.652 and 1.278 and 0.625 and 2.394 and 7.368. For the same molecule, the “overall effect on the skin of psoriasis mice (score)” value (shortened to “overall effect on the skin”) ([4]; DAY 0, individual mice) was 0, the “skin redness in psoriasis mice (score)” value ([4]; DAY 0, individual mice) was 0 and the “skin scaling in psoriasis mice (score)” value ([4]; DAY 0, individual mice) was 0. The “skin thickening in psoriasis mice (score)” value (shortened to “skin thickening”) ([4]; DAY 0, individual mice) was 0, the “overall effect on the skin” value [4, 5] was 1.667 and 1.167 and 1 and 2.333 and 2 and 0.6667 and the “skin redness in psoriasis mice (score)” value [4, 5] was 1 and 0.6667 and 0.8333 and 0.5 and 1.167 and 0. For the same molecule, the “skin scaling in psoriasis mice (score)” value [4, 5] was 0.1667 (3×) and 0 and 0.8333 and 0.3333, the “skin thickening” value [4, 5] was 0.5 (4×) and 0 and 1 and the “overall effect on the skin” value [4, 6] was 1.5 (2×) and 2 and 1.333 and 2.333 (2×). The “skin redness in psoriasis mice (score)” value [4, 6] was 0.8333 and 1 and 0.5 (2×) and 0.3333 and 0.1667, the “skin scaling in psoriasis mice (score)” value [4, 6] was 0.1667 and 0.5 and 0.3333 and 0.8333 (2×) and 1 and the “skin thickening” value [4, 6] was 0.5 (4×) and 1 (2×). The “overall effect on the skin” value [4, 7] was 3.333 (3×) and 2.333 and 2.5 and 2.167, the “skin redness in psoriasis mice (score)” value [4, 7] was 1 (2×) and 0.8333 (2×) and 0.6667 and 0.5 and the “skin scaling in psoriasis mice (score)” value [4, 7] was 0.8333 and 0.5 and 1.833 and 0.6667 (2×) and 1.167. The “skin thickening” value [4, 7] was 1.5 (2×) and 1 (3×) and 0.5, the “overall effect on the skin” value [4, 8] was 2.667 and 3.667 (2×) and 2.833 (2×) and 3 and the “skin redness in psoriasis mice (score)” value [4, 8] was 1.333 and 1 (2×) and 0.6667 and 1.167 and 0.8333. For the same molecule, the “skin scaling in psoriasis mice (score)” value [4, 8] was 1.333 and 1.667 and 1.167 and 1 and 1.5 (2×), the “skin thickening” value [4, 8] was 0 and 1 (4×) and 0.5 and the “overall effect on the skin” value [4, 9] was 3 (2×) and 2.667 and 4.333 and 3.5 (2×). The “skin redness in psoriasis mice (score)” value [4, 9] was 1.5 and 0.6667 (3×) and 1 and 0.5, the “skin scaling in psoriasis mice (score)” value [4, 9] was 1.5 and 1 and 2.333 and 1.333 and 1.833 and 2.5 and the “skin thickening” value [4, 9] was 0 and 1 (4×) and 0.5.
